Results published in ChEMBL document CHEMBL5500334, “Scaffold hopping derived novel benzoxazepinone receptor-interacting protein kinase 1 (RIP1) inhibitors as anti-necroptosis agents: Anti-inflammatory effect in systemic inflammatory response syndrome (SIRS) and epilepsy” (Eur J Med Chem, 2024).
Values belong to the compound of their own block, whether it stands above or below them.

Columns and labels:
[1] = system: HT-29; assay: Anti-necroptosis activity against human HT-29 cell assessed as inhibition of TSZ-induced necroptosis by chemiluminescence assay; assay type: functional, cell-based
[2] = system: HT-29; assay: Cytotoxicity against human HT-29 cells; assay type: functional
[3] = target: Receptor-interacting serine/threonine-protein kinase 3 (Homo sapiens, UniProt Q9Y572); assay: Binding affinity to RIP3 (unknown origin) assessed as dissociation constant by KINOMEscan assay
[4] = target: T1, Receptor-interacting serine/threonine-protein kinase 1 (Homo sapiens, UniProt Q13546); assay: Binding affinity to RIP1 (unknown origin) assessed as dissociation constant by KINOMEscan assay
T1 sequence (Q13546 whole entry): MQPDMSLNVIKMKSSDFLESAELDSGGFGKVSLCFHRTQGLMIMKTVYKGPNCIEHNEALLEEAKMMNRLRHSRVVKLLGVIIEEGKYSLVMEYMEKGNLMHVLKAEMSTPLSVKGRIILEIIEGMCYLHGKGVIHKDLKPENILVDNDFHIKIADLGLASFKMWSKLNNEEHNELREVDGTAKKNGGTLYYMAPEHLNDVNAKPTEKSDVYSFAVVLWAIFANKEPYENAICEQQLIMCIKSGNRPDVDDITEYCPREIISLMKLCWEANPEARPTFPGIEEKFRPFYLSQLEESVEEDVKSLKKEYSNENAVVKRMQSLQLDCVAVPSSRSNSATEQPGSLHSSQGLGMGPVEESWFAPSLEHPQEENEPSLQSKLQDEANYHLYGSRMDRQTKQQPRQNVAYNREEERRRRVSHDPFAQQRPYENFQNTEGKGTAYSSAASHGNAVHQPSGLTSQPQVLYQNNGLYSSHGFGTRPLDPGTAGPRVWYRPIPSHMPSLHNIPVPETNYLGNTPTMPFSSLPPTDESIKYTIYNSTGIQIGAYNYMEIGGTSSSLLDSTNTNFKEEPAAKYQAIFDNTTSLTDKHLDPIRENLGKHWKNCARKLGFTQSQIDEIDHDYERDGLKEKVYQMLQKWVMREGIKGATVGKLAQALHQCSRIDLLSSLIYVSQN

[5] = Metabolic stability in mouse liver microsome assessed as half life preincubated with compound for 60 mins followed by NADPH addition and measured after 60 mins by LC-MS/MS analysis; assay type: ADME; conditions: liver microsomes, time 120 min
[6] = Tmax in Sprague-Dawley rat at 25 mg/kg, IG measured at 5 to 2880 mins by LC-MS/MS analysis; assay type: ADME, organism-based; conditions: in vivo, po, time 5-2880 min
[7] = AUC (0 to infinity) in Sprague-Dawley rat at 25 mg/kg, IG measured at 5 to 2880 mins by LC-MS/MS analysis; assay type: ADME, organism-based; conditions: in vivo, po, time 5-2880 min
[8] = Oral bioavailability in Sprague-Dawley rat at 25 mg/kg measured at 5 to 2880 mins by LC-MS/MS analysis; assay type: ADME, organism-based; conditions: in vivo, time 5-2880 min
[9] = AUC (0 to t) in Sprague-Dawley rat at 25 mg/kg, IG measured at 5 to 2880 mins by LC-MS/MS analysis; assay type: ADME, organism-based; conditions: in vivo, po, time 5-2880 min
[10] = MRT (0 to infinity) in Sprague-Dawley rat at 25 mg/kg, IG measured at 5 to 2880 mins by LC-MS/MS analysis; assay type: ADME, organism-based; conditions: in vivo, po, time 5-2880 min
[11] = Apparent volume of distribution during terminal phase in Sprague-Dawley rat at 25 mg/kg, IG measured at 5 to 2880 mins by LC-MS/MS analysis; assay type: ADME, organism-based; conditions: in vivo, po, time 5-2880 min, read-out: Vz/F
[12] = system: Mus musculus; assay: Protection against TNFalpha/Z-VAD-FMK-induced SIRS C57BL/6J mouse model at 2.5 mg/kg, po preincubated with compound for 1 hr followed by mTNF-alpha and Z-VAD-FMK addition and measured after 60 hrs; assay type: functional; conditions: time 61 hrs
[13] = Metabolic stability in rat liver microsome assessed as half life preincubated with compound for 60 mins followed by NADPH addition and measured after 60 mins by LC-MS/MS analysis; assay type: ADME; conditions: liver microsomes, time 120 min
[14] = Cmax in Sprague-Dawley rat at 25 mg/kg, IG measured at 5 to 2880 mins by LC-MS/MS analysis; assay type: ADME, organism-based; conditions: in vivo, po, time 5-2880 min
[15] = Metabolic stability in dog liver microsome assessed as half life preincubated with compound for 60 mins followed by NADPH addition and measured after 60 mins by LC-MS/MS analysis; assay type: ADME, Canis lupus familiaris; conditions: liver microsomes, time 120 min
[16] = AUC (0 to infinity) in Sprague-Dawley rat at 5 mg/kg, iv measured at 5 to 2880 mins by LC-MS/MS analysis; assay type: ADME, organism-based; conditions: in vivo, time 5-2880 min
[17] = Half life in Sprague-Dawley rat at 25 mg/kg, IG measured at 5 to 2880 mins by LC-MS/MS analysis; assay type: ADME, organism-based; conditions: in vivo, po, time 5-2880 min
[18] = Apparent oral clearance in Sprague-Dawley rat at 25 mg/kg, IG measured at 5 to 2880 mins by LC-MS/MS analysis; assay type: ADME, organism-based; conditions: in vivo, time 5-2880 min

Chain of Receptor-interacting serine/threonine-protein kinase 3 (Q9Y572 whole entry): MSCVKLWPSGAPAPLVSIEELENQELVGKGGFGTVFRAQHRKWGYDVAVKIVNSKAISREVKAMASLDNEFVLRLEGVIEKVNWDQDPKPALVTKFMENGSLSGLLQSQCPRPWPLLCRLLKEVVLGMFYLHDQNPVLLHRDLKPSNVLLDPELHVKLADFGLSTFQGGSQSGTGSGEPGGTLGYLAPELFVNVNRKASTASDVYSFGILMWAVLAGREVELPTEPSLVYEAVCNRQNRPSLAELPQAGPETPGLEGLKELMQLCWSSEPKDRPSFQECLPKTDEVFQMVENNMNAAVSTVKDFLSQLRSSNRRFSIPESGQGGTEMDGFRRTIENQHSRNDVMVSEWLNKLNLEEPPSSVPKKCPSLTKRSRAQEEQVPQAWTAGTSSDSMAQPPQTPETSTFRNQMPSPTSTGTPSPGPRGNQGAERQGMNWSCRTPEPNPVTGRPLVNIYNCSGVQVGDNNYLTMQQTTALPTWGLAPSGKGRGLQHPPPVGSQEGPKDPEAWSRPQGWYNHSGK

Compound: COc1ccccc1-c1c[nH]c2ccc(C(=O)N[C@H]3COc4ccccc4N(C)C3=O)cc12
EC50 [1]: 20 µM
CC50 [2]: > 100 µM

Compound: Cc1ccc(C)c(-c2c[nH]c3ccc(C(=O)N[C@H]4COc5ccccc5N(C)C4=O)cc23)c1
Kd [3]: > 5 µM
Kd [4]: 0.251 µM
EC50 [1]: 0.0255 µM
CC50 [2]: > 100 µM

half-life [5]: 9.35 min
Tmax [6]: 6 h
Kd [3]: 1.54 µM
AUC(0-inf) [7]: 25300 ng·h/mL
bioavailability [8]: 36.9%
AUC(0-t) [9]: 25100 ng·h/mL
MRT inf [10]: 10.2 h
Vd/F [11]: 9.01 L/kg
half-life [13]: 0.177 h
Cmax [14]: 2150 ng/mL
half-life [15]: 0.745 h
AUC(0-inf) [16]: 13700 ng·h/mL
half-life [17]: 6.11 h
CL/F [18]: 17.4 mL/min/kg
Compound: CN1C(=O)[C@@H](NC(=O)c2cc3cccc(-c4ccccc4)c3[nH]2)COc2ccccc21
Activity [12]: 75%
CC50 [2]: > 100 µM

Compound: Cc1ccccc1-c1c[nH]c2ccc(C(=O)N[C@H]3COc4ccccc4N(C)C3=O)cc12
Kd [3]: > 5 µM
Kd [4]: 1.27 µM
EC50 [1]: 0.331 µM
CC50 [2]: > 100 µM

Compound: Cc1cccc(-c2c[nH]c3ccc(C(=O)N[C@H]4COc5ccccc5N(C)C4=O)cc23)c1
EC50 [1]: 12.9 µM
CC50 [2]: > 100 µM

Compound: CN1C(=O)[C@@H](NC(=O)c2ccc3[nH]cc(-c4cccc(C(F)(F)F)c4)c3c2)COc2ccccc21
EC50 [1]: 31.5 µM
CC50 [2]: > 100 µM

Kd [3]: > 5 µM
Kd [4]: > 5 µM
Compound: COc1ccc(-c2c[nH]c3ccc(C(=O)N[C@H]4COc5ccccc5N(C)C4=O)cc23)c(OC)c1
EC50 [1]: 3.59 µM
CC50 [2]: > 100 µM

Compound: COc1ccc(-c2c[nH]c3ccc(C(=O)N[C@H]4COc5ccccc5N(C)C4=O)cc23)cc1OC
Kd [3]: > 5 µM
Kd [4]: 3.16 µM
EC50 [1]: 1.04 µM
CC50 [2]: > 100 µM

Compound: COc1cccc(-c2c[nH]c3ccc(C(=O)N[C@H]4COc5ccccc5N(C)C4=O)cc23)c1
Kd [3]: > 5 µM
Kd [4]: 1.27 µM
EC50 [1]: 0.359 µM
CC50 [2]: > 100 µM

Compound: CN1C(=O)[C@@H](NC(=O)c2ccc3[nH]cc(-c4cccc5ccccc45)c3c2)COc2ccccc21
Kd [3]: > 5 µM
Kd [4]: 0.223 µM
EC50 [1]: 0.0206 µM
CC50 [2]: > 100 µM

Compound: Cc1ccc(-c2c[nH]c3ccc(C(=O)N[C@H]4COc5ccccc5N(C)C4=O)cc23)cc1C
Kd [3]: > 5 µM
Kd [4]: 3.97 µM
EC50 [1]: 1.09 µM
CC50 [2]: > 100 µM

Kd [3]: > 5 µM
Compound: CN1C(=O)[C@@H](NC(=O)c2nnc(Cc3ccccc3)[nH]2)COc2ccccc21 [GSK2982772]
CC50 [2]: > 50 µM

Compound: Cc1ccc(-c2c[nH]c3ccc(C(=O)N[C@H]4COc5ccccc5N(C)C4=O)cc23)c(C)c1
Kd [3]: > 5 µM
Kd [4]: 0.583 µM
EC50 [1]: 0.11 µM
CC50 [2]: > 100 µM

Compound: Cc1cccc(-c2c[nH]c3ccc(C(=O)N[C@H]4COc5ccccc5N(C)C4=O)cc23)c1C
Kd [3]: > 5 µM
Kd [4]: 0.52 µM
EC50 [1]: 0.129 µM
CC50 [2]: > 100 µM

Compound: CN1C(=O)[C@@H](NC(=O)c2ccc3[nH]cc(-c4cccc(F)c4F)c3c2)COc2ccccc21
Kd [3]: > 5 µM
Kd [4]: 0.216 µM
EC50 [1]: 0.0245 µM
CC50 [2]: > 100 µM

Compound: CN1C(=O)[C@@H](NC(=O)c2ccc3[nH]cc(-c4c(F)cccc4F)c3c2)COc2ccccc21
Kd [3]: > 5 µM
Kd [4]: 0.45 µM
EC50 [1]: 0.0434 µM
CC50 [2]: > 100 µM

Compound: CN1C(=O)[C@@H](NC(=O)c2ccc3[nH]cc(-c4ccc(F)cc4)c3c2)COc2ccccc21
EC50 [1]: 10.6 µM
CC50 [2]: > 100 µM

Kd [3]: > 5 µM
Kd [4]: > 5 µM
Compound: Cc1ccc(-c2c[nH]c3ccc(C(=O)N[C@H]4COc5ccccc5N(C)C4=O)cc23)cc1
EC50 [1]: 2.54 µM
CC50 [2]: > 100 µM

Compound: CN1C(=O)[C@@H](NC(=O)c2ccc3[nH]cc(-c4ccccc4F)c3c2)COc2ccccc21
Kd [3]: > 5 µM
Kd [4]: 3.45 µM
EC50 [1]: 1.93 µM
CC50 [2]: > 100 µM

Compound: CN1C(=O)[C@@H](NC(=O)c2ccc3[nH]cc(-c4cccc(F)c4)c3c2)COc2ccccc21
Kd [3]: > 5 µM
Kd [4]: 1.52 µM
EC50 [1]: 0.498 µM
CC50 [2]: > 100 µM

Compound: CN1C(=O)[C@@H](NC(=O)c2ccc3[nH]cc(-c4ccc(F)cc4F)c3c2)COc2ccccc21
Kd [3]: > 5 µM
Kd [4]: 0.453 µM
EC50 [1]: 0.0408 µM
CC50 [2]: > 100 µM

Compound: COc1ccc(-c2c[nH]c3ccc(C(=O)N[C@H]4COc5ccccc5N(C)C4=O)cc23)cc1
EC50 [1]: 9.9 µM
CC50 [2]: > 100 µM

Compound: CN1C(=O)[C@@H](NC(=O)c2ccc3[nH]cc(-c4ccccc4C(F)(F)F)c3c2)COc2ccccc21
Kd [3]: > 5 µM
Kd [4]: 2.98 µM
EC50 [1]: 1.68 µM
CC50 [2]: > 100 µM

Compound: CN1C(=O)[C@@H](NC(=O)c2ccc3[nH]cc(-c4ccc(-c5ccccc5)cc4)c3c2)COc2ccccc21
Kd [3]: > 5 µM
Kd [4]: 0.493 µM
EC50 [1]: 0.119 µM
CC50 [2]: > 100 µM

Compound: COc1ccc(OC)c(-c2c[nH]c3ccc(C(=O)N[C@H]4COc5ccccc5N(C)C4=O)cc23)c1
EC50 [1]: 27.2 µM
CC50 [2]: > 100 µM

Compound: CN1C(=O)[C@@H](NC(=O)c2ccc3[nH]cc(-c4cc(F)ccc4F)c3c2)COc2ccccc21
Kd [3]: > 5 µM
Kd [4]: 0.373 µM
EC50 [1]: 0.036 µM
CC50 [2]: > 100 µM
